This test concerns the target tau (Homo sapiens, UniProt P10636). Briefly: MCE Phenols Library screening, tau biosensor cell seeding assay (AvZ). It is filed as cell-based. The note with it: for Z repl 1 / Z Repl 2: Z score; for Z repl 1 / raw data 1: replicate 1; for Z Repl 2 / raw data 2: replicate 2; for AvZ (average z score of seeding, SDs from the mean level of seeding): 10 μM phenol in cell cultures, AD brain homogenate preincubated 16 hours, two biological replicates, positive = catalyzes seeding, negative = inhibits.

Setting [1] is: average Z score of the two replicates, MCE Phenols Library screen.
The mark [2] stands for this setting: average Z score of two replicates, Phenols Library screen.
The mark [3] stands for this setting: average puncta of the two replicates.
[4] abbreviates: average Z score of the two replicates, tau seeding.

From article PMC11784839, “Monoaminergic neurotransmitters are bimodal effectors of tau aggregation” (Science Advances, 2025) come the findings set out here.

Chain of tau (P10636 623-695 limits assumed): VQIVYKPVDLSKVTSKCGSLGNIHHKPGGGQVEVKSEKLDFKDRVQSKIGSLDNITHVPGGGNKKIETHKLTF

As for `O=C1CC(C(=O)O)c2c1oc(=O)c1cc(O)c(O)c(O)c21` (stereo not shown) [Brevifolincarboxylic acid], the “Z repl 1” value is given as -1.001 and the “Z Repl 2” value is -1.013. Also, under setting [1], the “av Z” value was -1.007. The same molecule returned an av puncta (average of raw data 1 and 2) of 8139.85. Also, where the note is “puncta”, the “raw data 1” value is listed as 14330.3 and the “raw data 2” value came to 1949.4.

In the case of `O=C(/C=C/c1ccc(O)c(O)c1)c1ccc(O)cc1O` [Butein], the “Z repl 1” value is -0.211 and the “Z Repl 2” value is 0.15. Moreover, the “av Z” value under setting [2] is recorded as -0.031. Also, the av puncta (average of raw data 1 and 2) was found to be 19090.8. Under “puncta”, the “raw data 1” value is reported as 23813.7 and the “raw data 2” value was 14367.8.

On to `O=C(/C=C/c1ccc(O)c(O)c1)OCCc1ccccc1` [Caffeic acid phenethyl ester], for which the “Z repl 1” value is reported as -0.979 and the “Z Repl 2” value was -0.394. Under setting [1], the “av Z” value is reported as -0.686. This molecule came in with an av puncta under setting [3] of 11579.1. Besides, where the note is “puncta”, the “raw data 1” value is on record as 14598.6 and the “raw data 2” value is reported as 8559.5.

For the molecule `O=C(/C=C/c1ccc(O)c(O)c1)O[C@@H](C(=O)O)[C@@H](O)C(=O)O` [Caftaric acid], the “AvZ (average z score of seeding, SDs from the mean level of seeding)” value (“AvZ” below) is given as -0.464; the “Z repl 1” value was -0.317; the “Z Repl 2” value is given as -0.61. In addition, the av puncta under setting [3] worked out at 14397.2. Moreover, for the setting “puncta”, the “raw data 1” value turned out to be 22545.7 and the “raw data 2” value amounted to 6248.57.

Regarding `O=C(/C=C/c1ccc(O)c(O)c1)OC[C@H]1O[C@@H](OCCc2ccc(O)c(O)c2)[C@H](O)[C@@H](O)[C@@H]1O` [Calceolarioside B], the “Z repl 1” value is 0.11 and the “Z Repl 2” value is -0.703. Besides, the “av Z” value under setting [1] is recorded as -0.297. Also, the av puncta under setting [3] is 16462.2. Besides, for the setting “raw puncta”, the “raw data 1” value was found to be 27671.5 and the “raw data 2” value is recorded as 5252.85.

As to `COc1ccc(-c2coc3cc(O[C@@H]4O[C@H](CO)[C@@H](O)[C@H](O)[C@H]4O)ccc3c2=O)cc1O` [Calycosin-7-O-?-D-glucoside], the “Z repl 1” value came out at 0.722 and the “Z Repl 2” value worked out at 1.127. Moreover, for the setting “average Z score of the two replicates, tau biosensor seeding, MCE Phenols Library screen”, the “av Z” value came out at 0.924. Besides, the av puncta (average of raw data 1 and 2) was 29908.6. For the setting “puncta”, the “raw data 1” value was found to be 35020 and the “raw data 2” value turned out to be 24797.2.

As for `COc1ccc(-c2coc3cc(O)ccc3c2=O)cc1O` [Calycosin], the “Z repl 1” value worked out at 0.387 and the “Z Repl 2” value is reported as -0.53. Besides, under setting [2], the “av Z” value is -0.072. The av puncta (average of raw data 1 and 2) is listed as 19046. Moreover, under “puncta”, the “raw data 1” value is on record as 30989.7 and the “raw data 2” value was determined as 7102.22.

In the case of `COc1cc(CNC(=O)CCCC/C=C/C(C)C)ccc1O` [Capsaicin, reference compound], the “AvZ” value is on record as -0.318; the “Z repl 1” value is reported as 0.025; the “Z Repl 2” value is recorded as -0.661. Under setting [3], this molecule returned an av puncta of 16179.6. For the same molecule, for the setting “raw puncta”, the “raw data 1” value stood at 26653.4 and the “raw data 2” value was 5705.75.

Take `COc1cc(O)cc(O)c1C(=O)/C=C/c1ccccc1` [Cardamonin]: the “Z repl 1” value was -0.394 and the “Z Repl 2” value was 0.139. The “av Z” value under setting [2] is -0.127. For the same molecule, the av puncta (average of raw data 1 and 2) worked out at 17936.7. Also, where the note is “puncta”, the “raw data 1” value came to 21621.9 and the “raw data 2” value stood at 14251.5.

Turning to `CC(C)c1cc2c(c(O)c1O)[C@@]13CCCC(C)(C)[C@@H]1C[C@@H]2OC3=O` [Carnosol], the “Z repl 1” value was determined as 0.436 and the “Z Repl 2” value is -0.449. For the same molecule, under setting [2], the “av Z” value is listed as -0.006. Where the note is “average of raw data 1 and 2”, this molecule displayed an av puncta of 19780.5. Further, under “puncta”, the “raw data 1” value is on record as 31586 and the “raw data 2” value stood at 7974.93.

Regarding `Cc1ccc(C(C)C)cc1O` [Carvacrol], the “AvZ” value is 0.979; the “Z repl 1” value was 0.54; the “Z Repl 2” value is 1.419. This molecule also displayed an av puncta (average of raw data 1 and 2) of 30376.1. Under “puncta”, the “raw data 1” value was determined as 32834.5 and the “raw data 2” value is 27917.7.

Consider `Oc1cc(O)c2c(c1)O[C@H](c1ccc(O)c(O)c1)[C@@H](O)C2` [Catechin], for which the “Z repl 1” value is -0.542 and the “Z Repl 2” value was -0.523. Moreover, the “av Z” value under setting [1] is -0.532. Also, the av puncta under setting [3] was 13513.8. In addition, where the note is “puncta”, the “raw data 1” value is recorded as 19846.5 and the “raw data 2” value worked out at 7181.16.

As to `CC[C@H]1CN2CCc3cc(OC)c(OC)cc3[C@@H]2C[C@@H]1C[C@H]1NCCc2cc(O)c(OC)cc21.Cl.Cl` [Cephaeline (dihydrochloride)], the “Z repl 1” value is on record as -0.202 and the “Z Repl 2” value is -0.66. Also, the “av Z” value under setting [1] is listed as -0.431. The molecule further had an av puncta under setting [3] of 14823.1. Besides, where the note is “raw puncta”, the “raw data 1” value turned out to be 23925.6 and the “raw data 2” value was found to be 5720.59.

As for `O=C(O)C[C@@H]1C(=O)O[C@H]2[C@@H]3OC(=O)c4cc(O)c(O)c(O)c4-c4c(cc(O)c(O)c4O)C(=O)OC[C@H]2O[C@@H](OC(=O)c2cc(O)c(O)c(O)c2)[C@@H]3OC(=O)c2cc(O)c(O)c3c2[C@H]1[C@H](O)C(=O)O3` [Chebulagic acid], the “Z repl 1” value is on record as -2.151. Besides, the “av Z” value under setting [1] is listed as -1.662. For the same molecule, the av puncta (average of raw data 1 and 2) is 382.845. Further, under “puncta”, the “raw data 1” value is listed as 523.863 and the “raw data 2” value worked out at 241.827.

In the case of `O=C(O)C[C@H](C(=O)O)[C@H]1c2c(cc(O)c(O)c2O)C(=O)O[C@@H]1C(=O)O` [Chebulic acid], the “Z repl 1” value is given as -1.01. The “av Z” value under setting [1] is listed as -1.092. Where the note is “average of raw data 1 and 2”, this molecule showed an av puncta of 7230.09. Under “puncta”, the “raw data 1” value is 14229.4 and the “raw data 2” value was found to be 230.797.

For the molecule `O=C(O)C[C@@H]1C(=O)O[C@H]2[C@H](OC(=O)c3cc(O)c(O)c(O)c3)[C@@H](OC(=O)c3cc(O)c(O)c4c3[C@H]1[C@H](O)C(=O)O4)[C@H](OC(=O)c1cc(O)c(O)c(O)c1)O[C@@H]2COC(=O)c1cc(O)c(O)c(O)c1` [Chebulinic acid], the “Z repl 1” value was -2.186 and the “Z Repl 2” value is -1.184. For the same molecule, under setting [1], the “av Z” value is on record as -1.685. This molecule came in with an av puncta (average of raw data 1 and 2) of 117.372. Moreover, under “puncta”, the “raw data 1” value is recorded as 108.91 and the “raw data 2” value is listed as 125.835.

In the case of `O=C(/C=C/c1ccc(O)c(O)c1)O[C@@H]1C[C@](O)(C(=O)O)C[C@@H](O)[C@H]1O` [Chlorogenic acid], the “Z repl 1” value amounted to 0.232 and the “Z Repl 2” value was -0.247. Also, the “av Z” value under setting [2] is on record as -0.007. For the same molecule, the av puncta (average of raw data 1 and 2) was found to be 19631.7. Moreover, where the note is “puncta”, the “raw data 1” value came out at 29136 and the “raw data 2” value is 10127.4.

In the case of `O=C(O)[C@H]1O[C@@H](Oc2cc(O)c3c(=O)cc(-c4ccccc4)oc3c2)[C@H](O)[C@@H](O)[C@@H]1O` [Chrysin-7-O-glucuronide], the “Z repl 1” value was 0.79 and the “Z Repl 2” value was found to be 0.073. The “av Z” value under setting [4] is reported as 0.431. The same molecule registered an av puncta (average of raw data 1 and 2) of 24687.2. Further, for the setting “puncta”, the “raw data 1” value is reported as 35829.5 and the “raw data 2” value worked out at 13544.8.

Turning to `COc1cc(-c2cc(=O)c3c(O)cc(O)cc3o2)ccc1O` [Chrysoeriol], the “Z repl 1” value turned out to be 0.623 and the “Z Repl 2” value is -0.203. The “av Z” value under setting [4] worked out at 0.21. The same molecule displayed an av puncta (average of raw data 1 and 2) of 22210.2. Besides, under “puncta”, the “raw data 1” value is on record as 33824.2 and the “raw data 2” value came out at 10596.2.

In the case of `COc1cc(-c2oc3cc(OC)c(OC)c(O)c3c(=O)c2OC)ccc1O` [Chrysosplenetin], the “Z repl 1” value was found to be 0.088 and the “Z Repl 2” value is reported as -0.899. The “av Z” value under setting [1] is recorded as -0.406. The molecule also displayed an av puncta under setting [3] of 15282.9. Further, for the setting “raw puncta”, the “raw data 1” value was determined as 27400 and the “raw data 2” value is recorded as 3165.82.

Turning to `COc1cc(CCO[C@@H]2O[C@H](CO[C@@H]3O[C@H](CO)[C@@H](O)[C@H](O)[C@H]3O)[C@@H](OC(=O)/C=C/c3ccc(O)c(O)c3)[C@H](O[C@@H]3O[C@@H](C)[C@H](O)[C@@H](O)[C@H]3O)[C@H]2O)ccc1O` [Cistanoside A], the “Z repl 1” value is reported as -0.369 and the “Z Repl 2” value is given as -0.502. The “av Z” value under setting [1] is reported as -0.435. This molecule also had an av puncta under setting [3] of 14662.2. Also, under “raw puncta”, the “raw data 1” value was 21923.2 and the “raw data 2” value turned out to be 7401.19.

As to `C[C@@H]1O[C@@H](OC[C@H]2O[C@@H](Oc3c(-c4ccc(O)cc4)oc4cc(O)cc(O)c4c3=O)[C@H](O[C@@H]3O[C@@H](C)[C@H](O)[C@@H](O)[C@H]3O)[C@@H](O)[C@@H]2O)[C@H](O)[C@H](O)[C@H]1O` [Clitorin], the “Z repl 1” value was -0.088 and the “Z Repl 2” value is listed as -0.968. Besides, the “av Z” value under setting [1] was -0.528. The molecule further had an av puncta under setting [3] of 13858.4. In addition, for the setting “puncta”, the “raw data 1” value was found to be 25288.8 and the “raw data 2” value worked out at 2427.91.

As to `O=C(/C=C/c1ccc(O)c(O)c1)N[C@@H](Cc1ccc(O)c(O)c1)C(=O)O` [Clovamide], the “Z repl 1” value is on record as -0.17 and the “Z Repl 2” value is listed as -1.084. For the same molecule, the “av Z” value under setting [1] was -0.627. Besides, the av puncta under setting [3] stood at 12750.8. In addition, under “puncta”, the “raw data 1” value is given as 24311.1 and the “raw data 2” value turned out to be 1190.55.

Consider `COc1cc2c(cc1O)-c1cc3ccc(OC)c(OC)c3c[n+]1CC2` [Columbamine], for which the “Z repl 1” value amounted to 0.655 and the “Z Repl 2” value was 0.636. For the same molecule, under setting [4], the “av Z” value came out at 0.646. The av puncta (average of raw data 1 and 2) is on record as 26887.1. For the setting “puncta”, the “raw data 1” value was 34211.5 and the “raw data 2” value was determined as 19562.6.

`COc1ccc2c(c1)OC[C@@H](c1cc(O)c(OC)c(OC)c1O)C2` [Colutehydroquinone]: the “Z repl 1” value was 0.366 and the “Z Repl 2” value came out at 0.999. Further, the “av Z” value under setting [4] was found to be 0.683. Where the note is “average of raw data 1 and 2”, this molecule registered an av puncta of 27089.5. Besides, where the note is “puncta”, the “raw data 1” value is recorded as 30747.2 and the “raw data 2” value came to 23431.8.
